The subject of data set [1] is Candida albicans. The data set can be described thus: Antifungal activity against fluconazole/ITC-susceptible Candida albicans ATCC MYA-2876 measured after 48 hrs by CLSI M27-A3 protocol based method. It is filed as functional. The settings on record: Candida albicans, ATCC MYA-2876, 48 h.
For data set [2], the system named is Candida albicans. The data set can be described thus: Antifungal activity against fluconazole/ITC-resistant Candida albicans ATCC 90819 measured after 48 hrs by CLSI M27-A3 protocol based method. Particulars: Candida albicans, ATCC 90819, 48 h; read-out: MIC. It is filed as functional.
In data set [3] the test system is Candida albicans. Put plainly: Antifungal activity against fluconazole/ITC-susceptible Candida albicans ATCC MYA-2310 measured after 48 hrs by CLSI M27-A3 protocol based method. Particulars: Candida albicans, ATCC MYA-2310, 48 h; read-out: MIC. It is filed as functional.
In data set [4] the test system is Nakaseomyces glabratus. Put plainly: Antifungal activity against Candida glabrata ATCC 2001 measured after 48 hrs by CLSI M27-A3 protocol based method. The settings on record: Nakaseomyces glabratus, CBS 138, 48 h; read-out: MIC. It is filed as functional, CBS 138.
Data set [5] deals with Candida parapsilosis. The data set can be described thus: Antifungal activity against Candida parapsilosis ATCC 22019 measured after 48 hrs by CLSI M27-A3 protocol based method. Type of data set: functional. Particulars: Lodderomyces parapsilosis, ATCC 22019, 48 h.
The test system of data set [6] is Candida albicans. Put plainly: Antifungal activity against Candida albicans ATCC 10231 measured after 48 hrs in presence of 10% FBS by CLSI M27-A3 protocol based method. It is filed as functional. The settings on record: Candida albicans, ATCC 10231, 48 h.
Data set [7] can be described thus: Hemolytic activity in mouse RBC at 62.5 ug/ml after 1 hr relative to control. Type of data set: ADME, cell-based, Erythrocyte. Particulars: mouse red blood cells (erythrocytes), read-out: Activity.
Data set [8] has as its system Cryptococcus neoformans. The data set can be described thus: Antifungal activity against Cryptococcus neoformans isolate CN2 measured after 48 hrs by CLSI M27-A3 protocol based method. It is filed as functional. Particulars: Cryptococcus neoformans, isolate CN2, 48 h; read-out: MIC.
Data set [9] concerns Candida albicans. Put plainly: Antifungal activity against Candida albicans ATCC 10231 measured after 48 hrs by CLSI M27-A3 protocol based method. Type of data set: functional. The settings on record: ATCC 10231, 48 h.
In data set [10] the test system is Candida albicans. The data set can be described thus: Antifungal activity against Candida albicans ATCC 64124 measured after 48 hrs by CLSI M27-A3 protocol based method. Type of data set: functional. The settings on record: Candida albicans, ATCC 64124, 48 h; read-out: MIC.
Data set [11] has as its system Candida albicans. Put plainly: Antifungal activity against fluconazole/ITC-resistant Candida albicans ATCC MYA-1237 measured after 48 hrs by CLSI M27-A3 protocol based method. It is filed as functional. The settings on record: Candida albicans, ATCC MYA-1237, 48 h; read-out: MIC.
Data set [12] has as its system Candida albicans. The data set can be described thus: Antifungal activity against fluconazole/ITC-resistant Candida albicans ATCC MYA-1003 measured after 48 hrs by CLSI M27-A3 protocol based method. Particulars: Candida albicans, ATCC MYA-1003, 48 h; read-out: MIC. Type of data set: functional.
Data set [13] concerns Pichia kudriavzevii. Put plainly: Antifungal activity against Candida krusei ATCC 6258 measured after 48 hrs by CLSI M27-A3 protocol based method. It is filed as functional. Particulars: Pichia kudriavzevii, ATCC 6258, 48 h.
Data set [14] relates to Aspergillus nidulans. The data set can be described thus: Antifungal activity against Aspergillus nidulans ATCC 38163 measured after 48 hrs by CLSI M38-A2 protocol based method. The settings on record: ATCC 38163, 48 h. It is filed as functional.
In data set [15] the test system is Aspergillus flavus. Put plainly: Antifungal activity against Aspergillus flavus ATCC MYA-3631 measured after 48 hrs by CLSI M38-A2 protocol based method. Particulars: ATCC MYA-3631, 48 h. Type of data set: functional.
The subject of data set [16] is Aspergillus terreus. The data set can be described thus: Antifungal activity against Aspergillus terreus ATCC MYA-3633 measured after 48 hrs by CLSI M38-A2 protocol based method. It is filed as functional. Particulars: ATCC MYA-3633, 48 h.
For data set [17], the system named is Nakaseomyces glabratus. The data set can be described thus: Antifungal activity against Candida glabrata isolate CG1 measured after 48 hrs by CLSI M27-A3 protocol based method. It is filed as functional. The settings on record: Nakaseomyces glabratus, 48 h; read-out: MIC.
Data set [18] has as its system Nakaseomyces glabratus. Put plainly: Antifungal activity against Candida glabrata isolate CG2 measured after 48 hrs by CLSI M27-A3 protocol based method. Type of data set: functional. The settings on record: Nakaseomyces glabratus, isolate CG2, 48 h; read-out: MIC.
The subject of data set [19] is Nakaseomyces glabratus. Put plainly: Antifungal activity against Candida glabrata isolate CG3 measured after 48 hrs by CLSI M27-A3 protocol based method. It is filed as functional. Particulars: Nakaseomyces glabratus, 48 h; read-out: MIC.
Data set [20] relates to Candida parapsilosis. Put plainly: Antifungal activity against Candida parapsilosis isolate CP1 measured after 48 hrs by CLSI M27-A3 protocol based method. Particulars: Lodderomyces parapsilosis, isolate CP1, 48 h. Type of data set: functional.
Data set [21] concerns Candida parapsilosis. Put plainly: Antifungal activity against Candida parapsilosis isolate CP2 measured after 48 hrs by CLSI M27-A3 protocol based method. It is filed as functional. The settings on record: Lodderomyces parapsilosis, isolate CP2, 48 h.
For data set [22], the system named is Cryptococcus neoformans. Put plainly: Antifungal activity against Cryptococcus neoformans isolate CN1 measured after 48 hrs by CLSI M27-A3 protocol based method. It is filed as functional. Particulars: isolate CN1, 48 h.
Data set [23] deals with Cryptococcus neoformans. Put plainly: Antifungal activity against Cryptococcus neoformans isolate CN3 measured after 48 hrs by CLSI M27-A3 protocol based method. Type of data set: functional. The settings on record: Cryptococcus neoformans, isolate CN3, 48 h; read-out: MIC.
Data set [24] relates to Candida parapsilosis. Put plainly: Antifungal activity against Candida parapsilosis isolate CP3 measured after 48 hrs by CLSI M27-A3 protocol based method. It is filed as functional. Particulars: Lodderomyces parapsilosis, isolate CP3, 48 h.
For data set [25], the system named is Candida parapsilosis. Put plainly: Antifungal activity against Candida parapsilosis ATCC 22019 measured after 48 hrs in presence of 10% FBS by CLSI M27-A3 protocol based method. It is filed as functional. The settings on record: Lodderomyces parapsilosis, ATCC 22019, 48 h.
The test system of data set [26] is Aspergillus nidulans. The data set can be described thus: Antifungal activity against Aspergillus nidulans ATCC 38163 measured after 48 hrs in presence of 10% FBS by CLSI M38-A2 protocol based method. It is filed as functional. The settings on record: ATCC 38163, 48 h.
The nature of data set [27]: Hemolytic activity in mouse RBC at 0.48 ug/ml after 1 hr relative to control. Type of data set: ADME, cell-based, Erythrocyte. The settings on record: mouse red blood cells (erythrocytes), read-out: Activity.
A short description of data set [28]: Hemolytic activity in mouse RBC at […] ug/ml after 1 hr relative to control. Type of data set: ADME, cell-based, Erythrocyte. The settings on record: mouse red blood cells (erythrocytes), read-out: Activity.
Data set [29] is described as follows: Hemolytic activity in mouse RBC at 1.95 ug/ml after 1 hr relative to control. Type of data set: ADME, cell-based, Erythrocyte. Particulars: mouse red blood cells (erythrocytes), at 1.95 µg/mL, read-out: Activity.
The nature of data set [30]: Hemolytic activity in mouse RBC at 3.9 ug/ml after 1 hr relative to control. Type of data set: ADME, cell-based, Erythrocyte. The settings on record: mouse red blood cells (erythrocytes), read-out: Activity.
A short description of data set [31]: Hemolytic activity in mouse RBC at 7.8 ug/ml after 1 hr relative to control. It is filed as ADME, cell-based, Erythrocyte. Particulars: mouse red blood cells (erythrocytes), read-out: Activity.
Data set [32] in a line: Hemolytic activity in mouse RBC at 31.3 ug/ml after 1 hr relative to control. Type of data set: ADME, cell-based, Erythrocyte. The settings on record: mouse red blood cells (erythrocytes), at 31.3 µg/mL, read-out: Activity.
Data set [33] can be described thus: Cytotoxicity against HEK293 cells assessed as cell survival at 3.9 ug/ml after 24 hrs by resazurin based assay relative to control. The settings on record: human, read-out: Survival.
Data set [34] deals with BEAS-2B. Put plainly: Cytotoxicity against human BEAS2B cells up to 7.8 ug/ml after 24 hrs by resazurin based assay. It is filed as cell-based.
In data set [35] the test system is A549. The data set can be described thus: Cytotoxicity against human A549 cells up to 7.8 ug/ml after 24 hrs by resazurin based assay. It is filed as cell-based. Particulars: a549, 24 h. (Alamar Blue is a resazurin reagent that responds to reducing activity.)
Data set [36] deals with Candida albicans. The data set can be described thus: Induction of membrane permeabilization in Candida albicans ATCC 10231 assessed as membrane disruption at 4 times MIC after 1 hr by propidium iodide staining based fluorescence microscopy. It is filed as functional, organism-based.
For data set [37], the system named is Candida albicans. Particulars: ATCC 10231, 0.975 ug/ml.
Data set [38] relates to Candida albicans. The settings on record: ATCC 10231, 0.975 ug/ml. The source holds these as a separate data set.
For data set [39], the system named is Candida albicans. The settings on record: ATCC 10231, 0.975 ug/ml. This is another data set of the same source.
Data set [40] concerns Candida albicans. The settings on record: ATCC 10231, 0.975 ug/ml. The source holds these as a separate data set.

≈ marks a conversion by molar mass, not a printed value. Calls of active or inactive are those of the source. No cut-off for these calls is given here.

By MIC is commonly meant the lowest concentration that inhibits growth of the organism. `C[C@@H]1[C@H](O)[C@@H](C)/C=C/C=C/C=C/C=C/C=C/C=C/C=C/[C@H](O[C@@H]2O[C@H](C)[C@@H](O)[C@H](N)[C@@H]2O)C[C@@H]2O[C@](O)(C[C@@H](O)C[C@@H](O)[C@H](O)CC[C@@H](O)C[C@@H](O)CC(=O)O[C@H]1C)C[C@H](O)[C@H]2C(=O)O` [AMPHOTERICIN B]: the minimum inhibitory concentration (MIC) in [1] was determined as 2.1 µM (≈ 1.94 µg/mL); in [2], 1.1 µM (≈ 1.02 µg/mL); in data set [3], 2.1 µM (≈ 1.94 µg/mL); in data set [4], 2.1 µM (≈ 1.94 µg/mL); in [5], 2.1 µM (≈ 1.94 µg/mL); in [6], 7.8 µg/mL.
On to `CCCCCCCCCCCCCCNCC(O)(Cn1cncn1)c1ccc(F)cc1F` (configuration not stated), for which the hemolysis at 1 h, 62.5 ug/ml in data set [7] was found to be 77%. In addition, the MIC in data set [8] is 0.53 µM (≈ 0.239 µg/mL); in [9], 4.3 µM (≈ 1.94 µg/mL); in [10], over 69.5 µM; in data set [1], over 69.5 µM; in data set [2] it was 17.3 µM (≈ 7.8 µg/mL); in [3], 69.5 µM (≈ 31.3 µg/mL). Besides, the MIC is over 69.5 µM in data set [11]; 69.5 µM (≈ 31.3 µg/mL) in data set [12]; 2.2 to 4.3 µM (≈ 0.991 to 1.94 µg/mL) in data set [4]; 8.7 µM (≈ 3.92 µg/mL) in data set [13]; 1.1 µM (≈ 0.496 µg/mL) in [5]; 8.7 µM (≈ 3.92 µg/mL) in data set [14]. The MIC was over 69.5 µM in data set [15]; 17.3 µM (≈ 7.8 µg/mL) in [16]; 4.3 µM (≈ 1.94 µg/mL) in data set [17]; 4.3 µM (≈ 1.94 µg/mL) in data set [18]; 8.7 µM (≈ 3.92 µg/mL) in data set [19]; 1.1 µM (≈ 0.496 µg/mL) in data set [20]. The MIC was found to be 2.2 µM (≈ 0.991 µg/mL) in data set [21]; 0.27 µM (≈ 0.122 µg/mL) in [22]; 1.1 µM (≈ 0.496 µg/mL) in data set [23]; 1.1 µM (≈ 0.496 µg/mL) in data set [24]; 7.8 µg/mL in data set [6]; 0.975 µg/mL in data set [25]. Further, the MIC in data set [26] worked out at 31.2 µg/mL. For the same compound, the hemolysis at 1 h, 0.48 ug/ml in [27] is 2%. The hemolysis at 1 h, 0.975 ug/ml in data set [28] was 6%. Also, the hemolysis at 1 h, 15.6 ug/ml in data set [28] was 29%. The hemolysis at 1 h, 1.95 ug/ml in [29] worked out at 3%. Further, the hemolysis at 1 h, 3.9 ug/ml in data set [30] was 10%. The hemolysis at 1 h, 7.8 ug/ml in [31] was determined as 17%. Further, the hemolysis at 1 h, 31.3 ug/ml in data set [32] was under 50%. In data set [33], the viability at 24 h, 3.9 ug/ml is over 50%. The Activity entry in [34] was “Non-Toxic”; in [35] it was “Non-Toxic”; in [37] it was 36.4%; in [38], 15.6%; in data set [39], 1.16%; in [40] it was 8.33%. Also, the result in [36] was inactive.

The record behind these values is ChEMBL document CHEMBL4118101 (Bioorg Med Chem, 2018).
